Reference: US5260257A, “Thermal transfer sheet” (Dai Nippon Printing Co., Ltd., priority 1991, dated 1993)
Blank lines part the entries; values can stand above or below the compound they belong to.

How the values were obtained:
[1] = system: S. typhimurium TA100, TA98 and TA1538; experiment: Ames test (mutagenic test); type: cell-based; conditions: positive if reversion colonies twice or more vs control
Experimental: Ames test was conducted as a mutagenic test.
Strains used were S. typhimurium TA100, TA98 and TA1538.
When the increase in the reversion colony was twice or more as compared with that in the case of the control, the mutagenicity was judged as positive, while when the increase in the reversion colony was less than twice as compared with that in the case of the control, the mutagenicity was judged as negative.

[2] = light fastness test (Example D1 series); type: physicochemical; conditions: Table D1; xenon, 50° C., 70 kJ/m^2
Experimental: (§1) The light fastness test was conducted as follows.
(§2) Irradiation was conducted by means of a xenon fadeometer Ci35A (manufactured by Atlas) under conditions of a black panel temperature of 50° C. and an integrating irradiation energy of 70 kJ/m^2.
(§3) The percentage fading was determined from a density change around an initial density of 1.0 according to the following equation.
(§4) Percentage fading=(1-I/I0)×100 (%)
(§5) I=optical density after irradiation; and
(§6) I0 =optical density before irradiation.
(§7) .largecircle.: less than 20% in the percentage fading
Δ: 20% or more in the percentage fading

[3] = ink stability test (precipitation of the dye in the ink observed with the naked eye); type: physicochemical; conditions: Table D1; room temperature (20°±3° C.), 48 hr
Experimental: The following ink composition for the formation of a dye supporting layer was prepared and heated to 70° C. to completely dissolve the ink.

[4] = light fastness test (xenon fadeometer, percentage fading); type: physicochemical; conditions: 70 kJ/m^2
Experimental: as §1, §2, §3, §4, §5, §6, §7
X : 20% or more in the percentage fading

[5] = Table C2, dyes of Table C1, 50° C.
[6] = Table A3, Comparative Examples A1-A6, 50° C.
[7] = Table B3, Comparative Examples B1-B6, 50° C.
[8] = Table C (C3), Comparative Examples C1-C6, 50° C.
[9] = Table A2, dyes of Table A1, 50° C.
[10] = Table B2, dyes of Table B1, 50° C.

SMILES: CCN(CC)c1ccc(N=C2C=C(NC(=O)C3CCCCC3)C(=O)C(Cl)=C2C)c(C)c1 [Comp. Ex. D2]
mutagenicity [1]: negative
Light fastness [2]: .largecircle. (less than 20% in the percentage fading)
stability of ink [3]: small amount of crystal

SMILES: CCN(CC)c1ccc(N=C2C=C(NC(C)=O)C(=O)C(Cl)=C2C)c(C)c1 [Comp. Ex. D1]
mutagenicity [1]: positive
Light fastness [2]: .largecircle. (less than 20% in the percentage fading)
stability of ink [3]: large amount of crystal

SMILES: CCN(CC)c1ccc(N=C2C=C(NC(=O)C3CC4C=CC3C4)C(=O)C=C2NC(C)=O)c(C)c1 (centres unmarked) [Dye No. 4 in Table C1]
Light fastness [4, 5]: .largecircle. (less than 20% in the percentage fading)

Light fastness [4, 6]: Δ
Light fastness [4, 7]: Δ
Light fastness [4, 8]: Δ
SMILES: CNc1ccc(O)c2c1C(=O)c1c(O)ccc(NC)c1C2=O [Comp. Ex. A4, C.I. Disperse Blue 26, reference compound]

SMILES: CCN(CC)c1ccc(N=C2C=C(NC(=O)C3CCCC3)C(=O)C(Cl)=C2C)c(C)c1 [compound 15]
Light fastness [4, 9]: .largecircle. (less than 20% in the percentage fading)

SMILES: CCN(CC)c1ccc(N=C2C=C(NC(=O)C3CC4C=CC3S4)C(=O)C(Cl)=C2C)c(C)c1 (centres unmarked) [Dye No. 22 in Table C1]
Light fastness [4, 5]: .largecircle. (less than 20% in the percentage fading)

SMILES: CCN(CCO)c1ccc(N=C2C=C(NC(=O)C3=CCC=CC3)C(=O)C(Cl)=C2C)c(C)c1 [Dye No. 21 in Table B1]
Light fastness [4, 10]: .largecircle. (less than 20% in the percentage fading)

SMILES: CCN(CC)c1ccc(N=C2C=C(NC(=O)c3ccsc3)C(=O)C(Cl)=C2C)c(NC(C)=O)c1 [compound 20]
Light fastness [4, 9]: .largecircle. (less than 20% in the percentage fading)

SMILES: CCN(CCO)c1ccc(N=C2C=C(NC(=O)C3CC3)C(=O)C=C2NC(C)=O)c(NS(C)(=O)=O)c1 [compound 10]
Light fastness [4, 9]: .largecircle. (less than 20% in the percentage fading)

Light fastness [4, 6]: Δ
Light fastness [4, 7]: Δ
Light fastness [4, 8]: Δ
SMILES: CNc1ccc(NC)c2c1C(=O)c1ccccc1C2=O [Comp. Ex. A1, C.I. Disperse Blue 14, reference compound]

SMILES: CCN(CC)c1ccc(N=C2C=C(NC(=O)C3=CCC=CC3)C(=O)C(Cl)=C2C)cc1 [Dye No. 18 in Table B1]
Light fastness [4, 10]: .largecircle. (less than 20% in the percentage fading)

SMILES: CCN(c1ccccc1)c1ccc(N=C2C=C(NC(=O)C3CC3)C(=O)C(Cl)=C2C)c(Cl)c1 [compound 8]
Light fastness [4, 9]: .largecircle. (less than 20% in the percentage fading)

SMILES: CCN(CCNS(C)(=O)=O)c1ccc(N=C2C=C(NC(=O)C3CC3)C(=O)C=C2NC(C)=O)c(C)c1 [compound 6]
Light fastness [4, 9]: .largecircle. (less than 20% in the percentage fading)

SMILES: CCN(CC)c1ccc(N=C2C=C(NC(=O)C3CC4C=CC3C4)C(=O)C(Cl)=C2C)c(NC(C)=O)c1 (centres unmarked) [Dye No. 8 in Table C1]
Light fastness [4, 5]: .largecircle. (less than 20% in the percentage fading)

SMILES: CCN(CC)c1ccc(N=C2C=CC(=O)C(NC(=O)C3=CC4C=CC3C4)=C2)c(NC(C)=O)c1 (centres unmarked) [Dye No. 12 in Table C1]
Light fastness [4, 5]: .largecircle. (less than 20% in the percentage fading)

SMILES: CCN(CC)c1ccc(N=C2C=C(NC(=O)c3ccccc3)C(=O)C(Cl)=C2C)c(C)c1 [Comparative Example A6, reference compound]
Light fastness [4, 6]: .largecircle. (less than 20% in the percentage fading)

SMILES: CCOc1cc(N(CC)CC)ccc1N=C1C=C(NC(=O)C2CC=CCC2)C(=O)C(Cl)=C1C (centres unmarked) [Dye No. 22 in Table B1]
Light fastness [4, 10]: .largecircle. (less than 20% in the percentage fading)

SMILES: CCCCC1CC(C(=O)NC2=CC(=Nc3ccc(N(CC)CC)cc3C)C(C)=C(Cl)C2=O)C1 (centres unmarked) [compound 12]
Light fastness [4, 9]: .largecircle. (less than 20% in the percentage fading)

SMILES: CCN(CC)c1ccc(N=C2C=C(NC(=O)C3CC4C=CC3N4C)C(=O)C(Cl)=C2C)c(C)c1 (centres unmarked) [Dye No. 24 in Table C1]
Light fastness [4, 5]: .largecircle. (less than 20% in the percentage fading)

SMILES: CCN(CC)c1ccc(N=C2C=C(NC(=O)C3CC3)C(=O)C(Cl)=C2C)c(C)c1 [compound 1]
Light fastness [4, 9]: .largecircle. (less than 20% in the percentage fading)

Light fastness [4, 6]: Δ
Light fastness [4, 7]: Δ
Light fastness [4, 8]: Δ
SMILES: CNc1ccc(Nc2cccc(C)c2)c2c1C(=O)c1ccccc1C2=O [Comp. Ex. A3, C.I. Solvent Blue 63, reference compound]

SMILES: CCOc1cc(N(CC)CC)ccc1N=C1C=CC(=O)C(NC(=O)C2CC2)=C1 [compound 4]
Light fastness [4, 9]: .largecircle. (less than 20% in the percentage fading)

SMILES: CCN(CC)c1ccc(N=C2C=C(NC(=O)C3=CCC=CC3)C(=O)C(Cl)=C2C)c(C)c1 [Dye No. 10 in Table B1]
Light fastness [4, 10]: .largecircle. (less than 20% in the percentage fading)

SMILES: CCOCCN(CC)c1ccc(N=C2C=C(NC(=O)C3CC4CCC3C4)C(=O)C(Cl)=C2C)c(C)c1 (centres unmarked) [Dye No. 17 in Table C1]
Light fastness [4, 5]: .largecircle. (less than 20% in the percentage fading)

SMILES: CCN(CC)c1ccc(N=C2C=CC(=O)C(NC(=O)C3C=CCC=C3)=C2)c(NC(C)=O)c1 [Dye No. 11 in Table B1]
Light fastness [4, 10]: .largecircle. (less than 20% in the percentage fading)

SMILES: CCOc1cc(N(CC)Cc2ccccc2)ccc1N=C1C=C(NC(=O)C2CC2)C(=O)C=C1NC(C)=O [compound 5]
Light fastness [4, 9]: .largecircle. (less than 20% in the percentage fading)

SMILES: CCOc1cc(N(CC)CCO)ccc1N=C1C=C(NC(=O)C2=CCCCC2)C(=O)C=C1NC(C)=O [Dye No. 9 in Table B1]
Light fastness [4, 10]: .largecircle. (less than 20% in the percentage fading)

SMILES: CCC1=C(Cl)C(=O)C(NC(=O)C2CC3C=CC2C3)=CC1=Nc1ccc(N(CC)CC)cc1C (centres unmarked) [Dye No. 7 in Table C1]
Light fastness [4, 5]: .largecircle. (less than 20% in the percentage fading)
